Organism: Rattus norvegicus
Experiment: DrugMatrix - Regimen: Daily Repeat
Type: toxicity, organism-based, Sprague-Dawley
Design: regimen Daily Repeat, gender Male, age 6-8 weeks
Conditions: in vivo, po, route oral GAVAGE, vehicle 100 % WATER; for ABSOLUTE BASOPHIL / ABSOLUTE EOSINOPHIL / ABSOLUTE LYMPHOCYTE / ABSOLUTE MONOCYTE / ABSOLUTE SEGMENTED NEUTROPHIL / BASOPHIL / EOSINOPHIL / ERYTHROCYTE COUNT / HEMATOCRIT / HEMOGLOBIN / LEUKOCYTE COUNT / LYMPHOCYTE / MEAN CORPUSCULAR HEMOGLOBIN / MEAN CORPUSCULAR HEMOGLOBIN CONCENTRATION / MEAN CORPUSCULAR VOLUME / MONOCYTE / NEUTROPHIL / NUCLEATED RED BLOOD CELLS / PLATELET COUNT: tissue Blood; for ALANINE AMINOTRANSFERASE / ALBUMIN / ALKALINE PHOSPHATASE / ASPARTATE AMINOTRANSFERASE / BLOOD UREA NITROGEN / CARBON DIOXIDE / CHLORIDE / CHOLESTEROL / CREATINE PHOSPHOKINASE / CREATININE / GLUCOSE / LACTATE DEHYDROGENASE / LIPASE / PHOSPHORUS / POTASSIUM / SODIUM / TOTAL BILIRUBIN / TOTAL PROTEIN / URIC ACID: tissue Plasma
[1] = 175 mg/kg, 120 h, dose level High, time 5 day
[2] = […], 72 h, dose 5.8 mg/Kg, dose level Low, time 3 day
[3] = […], 120 h, dose 5.8 mg/Kg, dose level Low, time 5 day

Structure (SMILES): O=c1[nH]c(=O)n(C2CCCO2)cc1F (centres undefined) [TEGAFUR]
- ABSOLUTE BASOPHIL [1]: 0 CELLS/uL
- ABSOLUTE EOSINOPHIL [1]: 47 CELLS/uL
- ABSOLUTE LYMPHOCYTE [1]: 11945 CELLS/uL
- ABSOLUTE MONOCYTE [1]: 125.33 CELLS/uL
- ABSOLUTE SEGMENTED NEUTROPHIL [1]: 416 CELLS/uL
- BASOPHIL [1]: 0%
- EOSINOPHIL [1]: 0.33%
- ERYTHROCYTE COUNT [1]: 6.13 x10E6/uL
- HEMATOCRIT [1]: 37.33%
- HEMOGLOBIN [1]: 14.9 G/DL
- LEUKOCYTE COUNT [1]: 12.53 x10E3/uL
- LYMPHOCYTE [1]: 95.33%
- MEAN CORPUSCULAR HEMOGLOBIN [1]: 24.33 pg
- MEAN CORPUSCULAR HEMOGLOBIN CONCENTRATION [1]: 39.9 G/DL
- MEAN CORPUSCULAR VOLUME [1]: 60.9 fL
- MONOCYTE [1]: 1%
- NEUTROPHIL [1]: 3.33%
- NUCLEATED RED BLOOD CELLS [1]: 0 /100WBC
- PLATELET COUNT [1]: 1252.33 x10E3/uL
- ALANINE AMINOTRANSFERASE [1]: 40 u/L
- ALBUMIN [1]: 4.43 G/DL
- ALKALINE PHOSPHATASE [1]: 333 u/L
- ASPARTATE AMINOTRANSFERASE [1]: 113 u/L
- BLOOD UREA NITROGEN [1]: 19.67 mg/dL
- CARBON DIOXIDE [1]: 26 mmol/L
- CHLORIDE [1]: 106 MEQ/L
- CHOLESTEROL [1]: 80.67 mg/dL
- CREATINE PHOSPHOKINASE [1]: 419.33 u/L
- CREATININE [1]: 0.24 mg/dL
- GLUCOSE [1]: 146.33 mg/dL
- LACTATE DEHYDROGENASE [1]: 797.67 u/L
- LIPASE [1]: 9.33 u/L
- PHOSPHORUS [1]: 10.2 mg/dL
- POTASSIUM [1]: 5.48 MEQ/L
- SODIUM [1]: 149.83 MEQ/L
- TOTAL BILIRUBIN [1]: 0.17 mg/dL
- TOTAL PROTEIN [1]: 6.13 G/DL
- URIC ACID [1]: 1.43 mg/dL
- ABSOLUTE BASOPHIL [2]: 0 CELLS/uL
- ABSOLUTE EOSINOPHIL [2]: 50 CELLS/uL
- ABSOLUTE LYMPHOCYTE [2]: 13948.67 CELLS/uL
- ABSOLUTE MONOCYTE [2]: 166.67 CELLS/uL
- ABSOLUTE SEGMENTED NEUTROPHIL [2]: 1434.67 CELLS/uL
- BASOPHIL [2]: 0%
- EOSINOPHIL [2]: 0.33%
- ERYTHROCYTE COUNT [2]: 5.51 x10E6/uL
- HEMATOCRIT [2]: 34.4%
- HEMOGLOBIN [2]: 13.43 G/DL
- LEUKOCYTE COUNT [2]: 15.6 x10E3/uL
- LYMPHOCYTE [2]: 89.67%
- MEAN CORPUSCULAR HEMOGLOBIN [2]: 24.37 pg
- MEAN CORPUSCULAR HEMOGLOBIN CONCENTRATION [2]: 39.03 G/DL
- MEAN CORPUSCULAR VOLUME [2]: 62.43 fL
- MONOCYTE [2]: 1%
- NEUTROPHIL [2]: 9%
- NUCLEATED RED BLOOD CELLS [2]: 0 /100WBC
- PLATELET COUNT [2]: 1387 x10E3/uL
- ALANINE AMINOTRANSFERASE [2]: 47.33 u/L
- ALBUMIN [2]: 4.23 G/DL
- ALKALINE PHOSPHATASE [2]: 325.33 u/L
- ASPARTATE AMINOTRANSFERASE [2]: 100.33 u/L
- BLOOD UREA NITROGEN [2]: 15.33 mg/dL
- CARBON DIOXIDE [2]: 28.33 mmol/L
- CHLORIDE [2]: 100.33 MEQ/L
- CHOLESTEROL [2]: 86 mg/dL
- CREATINE PHOSPHOKINASE [2]: 626 u/L
- CREATININE [2]: 0.22 mg/dL
- GLUCOSE [2]: 138.67 mg/dL
- LACTATE DEHYDROGENASE [2]: 764.67 u/L
- LIPASE [2]: 9.67 u/L
- PHOSPHORUS [2]: 12.43 mg/dL
- POTASSIUM [2]: 6.48 MEQ/L
- SODIUM [2]: 143.37 MEQ/L
- TOTAL BILIRUBIN [2]: 0.17 mg/dL
- TOTAL PROTEIN [2]: 5.97 G/DL
- URIC ACID [2]: 1.57 mg/dL
- ABSOLUTE BASOPHIL [3]: 0 CELLS/uL
- ABSOLUTE EOSINOPHIL [3]: 53.67 CELLS/uL
- ABSOLUTE LYMPHOCYTE [3]: 12194.67 CELLS/uL
- ABSOLUTE MONOCYTE [3]: 43 CELLS/uL
- ABSOLUTE SEGMENTED NEUTROPHIL [3]: 1808.67 CELLS/uL
- BASOPHIL [3]: 0%
- EOSINOPHIL [3]: 0.33%
- ERYTHROCYTE COUNT [3]: 5.38 x10E6/uL
- HEMATOCRIT [3]: 32.9%
- HEMOGLOBIN [3]: 13.1 G/DL
- LEUKOCYTE COUNT [3]: 14.1 x10E3/uL
- LYMPHOCYTE [3]: 86.67%
- MEAN CORPUSCULAR HEMOGLOBIN [3]: 24.33 pg
- MEAN CORPUSCULAR HEMOGLOBIN CONCENTRATION [3]: 39.83 G/DL
- MEAN CORPUSCULAR VOLUME [3]: 61.1 fL
- MONOCYTE [3]: 0.33%
- NEUTROPHIL [3]: 12.67%
- NUCLEATED RED BLOOD CELLS [3]: 0.33 /100WBC
- PLATELET COUNT [3]: 1303.67 x10E3/uL
- ALANINE AMINOTRANSFERASE [3]: 51 u/L
- ALBUMIN [3]: 4.13 G/DL
- ALKALINE PHOSPHATASE [3]: 305.67 u/L
- ASPARTATE AMINOTRANSFERASE [3]: 93.67 u/L
- BLOOD UREA NITROGEN [3]: 16 mg/dL
- CARBON DIOXIDE [3]: 24.33 mmol/L
- CHLORIDE [3]: 102.67 MEQ/L
- CHOLESTEROL [3]: 77.33 mg/dL
- CREATINE PHOSPHOKINASE [3]: 365 u/L
- CREATININE [3]: 0.22 mg/dL
- GLUCOSE [3]: 140 mg/dL
- LACTATE DEHYDROGENASE [3]: 424.33 u/L
- LIPASE [3]: 9.33 u/L
- PHOSPHORUS [3]: 11.73 mg/dL
- POTASSIUM [3]: 6.27 MEQ/L
- SODIUM [3]: 142.73 MEQ/L
- TOTAL BILIRUBIN [3]: 0.27 mg/dL
- TOTAL PROTEIN [3]: 5.97 G/DL
- URIC ACID [3]: 1.6 mg/dL

From ChEMBL document CHEMBL3885881, “DrugMatrix”
